The text below walks through data of patent US12031151B2, “Methods of improving protein titer in cell culture” (Regeneron Pharmaceuticals, Inc., priority 2021, dated 2024).

The test system of the test is protein titer of dupilumab production cell culture. Kind of test: LC-MS analysis of HEPES related impurities and titer correlation evaluation across cell culture production runs. It is filed as cell-based. The following applies: for Pearson Correlation Coefficient, 5 HEPES salt lots / Pearson Correlation Coefficient, 7 CDM1B lots (Geel) / Pearson Correlation Coefficient, 20 CDM1B lots (Rens): correlation of impurity abundance with final titer; for Pearson Correlation Coefficient, 7 CDM1B lots (Geel): 7 CDM1B media lots; for Pearson Correlation Coefficient, 20 CDM1B lots (Rens): 20 CDM1B media lots; for correlation of impurity abundance with titer: dupilumab production runs, Site 1 (20 runs) and Site 2 (7 runs). On the procedure:
ANOVA analysis of the lot genealogy of 53 different components of a chemically defined media was performed between lots utilized in “high titer” performing cell culture runs and “low titer” performing cell culture runs. HEPES acid and salt were identified as “high risk” components, showing the strongest correlation with final titer (the correlation was stronger than the correlation between the titer and media as whole). HEPES also was identified as a “high risk component” in an independent risk-based analysis that considered the weight fractions of components in the media formulation, components' COA purity and their manufacturing methods.
Following identification of HEPES as a “high risk” component with strong correlation to final titer, an analysis of the chemical composition of HEPES buffer lots was performed, including LC-MS and titer correlations evaluations.
Large scale production runs were performed at multiple sites to produce dupilumab. […] Based on the findings, and in accordance with the inventions, improved protein titer may be obtained by using media having reduced HEPES related impurities, in accordance with the inventions.
FIG. 1 illustrates the relation between relative amounts of HEPES+[O2]−[H2] and protein titer. […] Summary of fit data is shown below each graph of FIGS. 2A and 2B.
FIG. 3 illustrates the relation between relative amounts of HEPES−[CH4] and protein titer. […] Summary of fit data is shown below each graph of FIGS. 4A and 4B.

Take `O=S(=O)(O)CC(O)O` [2,2-Dihydroxyethane-sulfonic acid]: the “Pearson Correlation Coefficient, 5 HEPES salt lots” value is on record as −0.85.
As for `CC(=O)NCS(=O)(=O)O` [Acetamidomethane-sulfonic acid], the “Pearson Correlation Coefficient, 5 HEPES salt lots” value was −0.81; the “Pearson Correlation Coefficient, 7 CDM1B lots (Geel)” value is given as −0.34; the “Pearson Correlation Coefficient, 20 CDM1B lots (Rens)” value was −0.78.
For `O=CN(CCO)CCN(C=O)CCS(=O)(=O)O` [HEPES+[O2]−[H2]], the “Pearson Correlation Coefficient, 5 HEPES salt lots” value was −0.82; the “Pearson Correlation Coefficient, 7 CDM1B lots (Geel)” value was −0.68; the “Pearson Correlation Coefficient, 20 CDM1B lots (Rens)” value was −0.77; the “correlation of impurity abundance with titer” value is given as “negative correlation with titer”.
The like results for `O=CN1CCN(CCS(=O)(=O)O)CC1` [HEPES−[CH4]] were, in that order, −0.85, −0.83, −0.68 and “negative correlation with titer”.
With `C=CS(=O)(=O)O` [Vinylsulfonic acid], the “Pearson Correlation Coefficient, 5 HEPES salt lots” value is on record as −0.60; the “Pearson Correlation Coefficient, 7 CDM1B lots (Geel)” value amounted to 0.41; the “Pearson Correlation Coefficient, 20 CDM1B lots (Rens)” value worked out at 0.16.
